Data as given in ChEMBL document CHEMBL3880408, “MgluR5 modulators” (2008).

Assay: Ratio of drug level in brain to plasma in Sprague-Dawley rat by HPLC and MS-MS method
Assay type: ADME, cell-free
Conditions: read-out: BPR

| Kp | Compound |
| --- | --- |
| < 0.5 | Cc1cccc(-n2nnc([C@@H](C)Oc3nnc(-c4cn[nH]c(=O)c4)n3C)n2)c1 |
| < 0.5 | C[C@@H](Oc1nnc(-c2cn[nH]c(=O)c2)n1C)c1cc(-c2cccc(Cl)c2)on1 |
| < 0.5 | C[C@@H](Oc1nnc(-c2ccn(C)c(=O)c2)n1C)c1cc(-c2cccc(Cl)c2)on1 |
| < 0.5 | C[C@@H](Oc1nnc(-c2cc[nH]c(=O)c2)n1C)c1noc(-c2cccc(Cl)c2)n1 |
| < 0.5 | C[C@@H](Oc1nnc(-c2cc[nH]c(=O)c2)n1C)c1nnn(-c2cccc(Cl)c2)n1 |
| < 0.5 | Cc1cccc(-c2cc([C@@H](C)Oc3nnc(-c4cn[nH]c(=O)c4)n3C)no2)c1 |
| < 0.5 | Cn1c(OCc2cc(-c3cccc(Cl)c3)on2)nnc1-c1cc[nH]c(=O)c1 |
| < 0.5 | C[C@@H](Oc1nnc(-c2cn[nH]c(=O)c2)n1C)c1nnn(-c2cccc(Cl)c2)n1 |
| < 0.5 | C[C@@H](Oc1nnc(-c2cn[nH]c(=O)c2)n1C)c1noc(-c2cccc(Cl)c2)n1 |
| < 0.5 | C[C@@H](Oc1nnc(-c2ccn(C)c(=O)c2)n1C)c1noc(-c2cccc(Cl)c2)n1 |
